Test results from ChEMBL document CHEMBL1201862, “PubChem BioAssay data set” (2004).
Activity calls are given as the source filed them.

Assays:
[1] = cytotoxicity in OV-90 ovarian cancer cells, dose response, PAX8 inhibitor project, cell-based, plate reader, dry powder, SA8 (AID 743149); type: functional
[2] = A549 cell cytotoxicity, dose response, cytotoxicity control, plate reader, cherry-pick, antagonist series (AID 743412); type: functional, cell-based
[3] = non-specific cell cytotoxicity, dose response, cytotoxicity control for PAX8 inhibitor project, plate reader, dry powder samples (AID 743021); type: functional, cell-based
[4] = MC4R antagonists, dose response, counter-screen for LGR2 antagonist project, cell-based, plate reader, cherry pick (AID 743444); type: functional;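 note: transfected HEK 293 cells stimulated with alpha-MSH peptide; potency of inhibitors of the alpha-MSH evoked signal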
[5] = A2780 ovarian cancer cell cytotoxicity, dose response, cytotoxicity control, plate reader, dry powder samples (AID 743046); type: functional, cell-based
[6] = cytotoxicity dependent on PAX8, dose response, cell-based, plate reader, dry powder (AID 743049); type: functional
[7] = IOSE-T80 ovarian epithelial cell cytotoxicity, dose response, cytotoxicity control for PAX8 inhibitor project, plate reader, dry powder samples (AID 743045); type: functional, cell-based
[8] = LGR2 antagonists, dose response, cell-based, HEK293, CRE-luciferase reporter, cherry pick, set 2 (AID 743343); type: functional;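 note: transfected cells were stimulated with diluted bursicon conditioned medium after compound addition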
[9] = PAX5 activity inhibitors, dose response, selectivity assay for PAX8 inhibitor project, cell-based, plate reader, dry powder samples (AID 743047); type: functional;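 note: HEK293 cells carrying a Pax5 driven CD19 promoter luciferase reporter; potency of inhibitors that lower reporter luminescence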
[10] = cytotoxicity in COV434 cells, dose response, cytotoxicity control for PAX8 inhibitor project, cell-based, plate reader, dry powder, SA7 (AID 743145); type: functional
[11] = HepG2 cell cytotoxicity, dose response, cytotoxicity control, plate reader, cherry-pick, antagonist series (AID 743416); type: functional, cell-based
[12] = cytotoxicity in OVCAR4 cells, dose response, cytotoxicity control for PAX8 inhibitor project, cell-based, plate reader, dry powder, SA11 (AID 743150); type: functional; details: OVCAR-4
Paired box protein Pax-8 = Paired box protein Pax-8 (Homo sapiens, UniProt Q06710); experiment: inhibitors of PAX8-driven TPO luciferase reporter, dose response, RMG-I cells, cherry-pick (AID 687027); type: functional, cell-based;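 note: luciferase reporter driven by Pax8 target thyroperoxidase promoter measured by SteadyGlo luminescence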
[13] = PAX2 cell-based inhibition, dose response, selectivity assay for PAX8 inhibitor project, plate reader, dry powder samples (AID 743048); type: functional;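 note: HEK293 cells carrying a WT1 promoter luciferase reporter driven by expressed Pax2; potency is for inhibition of Pax2 driven reporter signal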
[14] = NIH:OVCAR-3 ovarian cancer cell cytotoxicity, dose response, PAX8 inhibitor project, plate reader, dry powder samples (AID 743044); type: functional, cell-based
[15] = IGROV1 ovarian cancer cell cytotoxicity, dose response, PAX8 inhibitor project, plate reader, dry powder samples (AID 743043); type: functional, cell-based; details: IGROV-1
[16] = HEK293 cell cytotoxicity, dose response, cytotoxicity control, plate reader, cherry-picked samples (AID 743446); type: functional, cell-based
[17] = cytotoxicity in HEK-293T cells, dose response, cytotoxicity control for TCR NF-kB inhibitor project, luminescence, T-cell screen hits (AID 489026); type: functional, cell-based;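 note: cells exposed to compound about 14 hours before the viability readout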
[18] = cytotoxicity in COV362 ovarian cancer cells, dose response, cytotoxicity control for PAX8 inhibitor project, cell-based, plate reader, dry powder, SA12 (AID 743144); type: functional
cells [19] = type: functional
[20] = target: Matrix metalloproteinase-14 (Homo sapiens, UniProt P50281); experiment: Dose Response confirmation of uHTS hits for a small molecule inhibitors of MT1-MMP activation in a fluorescence assay set 1.; type: functional
[21] = THP-1 cell cytotoxicity, dose response, cytotoxicity control for non-replicating M. tuberculosis project (AID 489025); type: functional
Nonstructural protein 1 = Nonstructural protein 1 (Influenza A virus, UniProt Q194T2); type: functional, Influenza A virus (A/California/07/2009(H1N1))
[22] = target: Beta-2 adrenergic receptor (Homo sapiens, UniProt P07550); experiment: beta2AR agonists driving receptor internalization, dose response, cell-based, FAP fluorogen, flow cytometry, cherry pick 1 (AID 588763); type: functional
[23] = control 3'UTR Renilla luciferase suppression, dose response, counter-screen for Shn3 inhibitor project, cell-based, Clone20-Shn3RL, cherry-picked (AID 624133); type: functional
[24] = inhibitors of control Renilla luciferase reporter, dose response, counter-screen for Shn3 3'UTR targeting project, Clone20-Shn3RL cells, dual-Glo, cherry-pick, set 2 (AID 720724); type: functional, cell-based; details: Dual-Go Shn3RL
[25] = HepG2 cell cytotoxicity, dose response, cytotoxicity control for Shn3 inhibitor project, CellTiter-Glo, cherry-picked (AID 624134); type: functional, cell-based
[26] = reduction of endogenous Shn3 mRNA, dose response, qPCR, Clone20 cells, cherry-pick (AID 743415); type: functional, cell-based
[27] = Shn3 3'UTR reporter inhibitors, dose response, cell-based, Clone20 osteoblasts, firefly luciferase, cherry-picked (AID 624132); type: functional;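 note: firefly luciferase luminescence from reporter carrying the Shn3 3'UTR in osteoblasts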
[28] = reduction of Shn3 3'UTR firefly luciferase signal, dose response, Schnurri-3 inhibitor project, cell-based, Clone20 osteoblasts, cherry-pick, set 2 (AID 720490); type: functional;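 note: actives lower the luminescence signal as inhibitors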
[29] = target: T1, Oxysterols receptor LXR-beta (Homo sapiens, UniProt P55055); type: functional, cell-based;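 note: agonist activity at LXR measured by a cell-based luminescence readout across a dose range, run as a counterscreen for daf-12 agonists; HEK293 cells with Gal4-LXR fusion and GAL4-driven luciferase reporter; potency for activation of Gal4-LXR reporter so compounds are agonists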
T1 sequence (P55055 whole entry): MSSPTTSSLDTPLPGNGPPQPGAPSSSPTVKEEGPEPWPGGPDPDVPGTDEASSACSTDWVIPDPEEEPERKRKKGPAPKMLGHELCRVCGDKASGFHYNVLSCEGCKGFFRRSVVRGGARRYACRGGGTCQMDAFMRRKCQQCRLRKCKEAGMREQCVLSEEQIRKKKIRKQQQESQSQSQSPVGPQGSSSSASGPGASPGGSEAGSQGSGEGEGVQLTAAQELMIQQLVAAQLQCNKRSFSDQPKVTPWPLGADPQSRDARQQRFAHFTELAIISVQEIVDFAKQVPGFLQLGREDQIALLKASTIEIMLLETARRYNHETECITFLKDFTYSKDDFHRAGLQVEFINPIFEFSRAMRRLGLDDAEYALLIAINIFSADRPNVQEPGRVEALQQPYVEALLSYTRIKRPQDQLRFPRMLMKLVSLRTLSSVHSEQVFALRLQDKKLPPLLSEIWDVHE

[30] = target: T2, Low molecular weight phosphotyrosine protein phosphatase (Homo sapiens, UniProt P24666); type: functional; details: read-out: IC50_Mean
T2 sequence (P24666 whole entry): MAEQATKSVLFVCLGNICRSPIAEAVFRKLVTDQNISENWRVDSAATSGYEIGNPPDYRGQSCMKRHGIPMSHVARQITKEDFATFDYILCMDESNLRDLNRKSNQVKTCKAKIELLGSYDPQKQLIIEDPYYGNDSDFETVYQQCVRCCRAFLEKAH

[31] = target: T3, Carboxy-terminal domain RNA polymerase II polypeptide A small phosphatase 1 (Homo sapiens, UniProt Q9GZU7); experiment: inhibitors of CTDSP1, concentration-response testing, biochemical assay, absorbance-based, actives from ultra-high-throughput screening (AID 540297); type: functional
T3 sequence (Q9GZU7 whole entry): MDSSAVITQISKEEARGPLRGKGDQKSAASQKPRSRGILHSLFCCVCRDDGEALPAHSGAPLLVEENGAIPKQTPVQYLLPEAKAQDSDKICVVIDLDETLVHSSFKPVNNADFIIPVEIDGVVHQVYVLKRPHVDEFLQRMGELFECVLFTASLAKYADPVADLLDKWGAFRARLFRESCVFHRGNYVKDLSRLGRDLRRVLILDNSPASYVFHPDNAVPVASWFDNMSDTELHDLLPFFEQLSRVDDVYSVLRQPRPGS

[32] = target: T2, Low molecular weight phosphotyrosine protein phosphatase; type: functional; details: read-out: IC50_Mean; remark: listed apart in the source
[33] = HeLa cell cytotoxicity, dose response, cytotoxicity control for MgcRacGAP inhibitor project (AID 624300); type: functional
[34] = target: T4, Rac GTPase-activating protein 1 (Homo sapiens, UniProt Q9H0H5); experiment: MgcRacGAP GTPase-activating activity inhibitors, confirmation, biochemical, ADP Hunter fluorescence, primary and confirmatory (AID 624330); type: functional
T4 sequence (Q9H0H5 whole entry): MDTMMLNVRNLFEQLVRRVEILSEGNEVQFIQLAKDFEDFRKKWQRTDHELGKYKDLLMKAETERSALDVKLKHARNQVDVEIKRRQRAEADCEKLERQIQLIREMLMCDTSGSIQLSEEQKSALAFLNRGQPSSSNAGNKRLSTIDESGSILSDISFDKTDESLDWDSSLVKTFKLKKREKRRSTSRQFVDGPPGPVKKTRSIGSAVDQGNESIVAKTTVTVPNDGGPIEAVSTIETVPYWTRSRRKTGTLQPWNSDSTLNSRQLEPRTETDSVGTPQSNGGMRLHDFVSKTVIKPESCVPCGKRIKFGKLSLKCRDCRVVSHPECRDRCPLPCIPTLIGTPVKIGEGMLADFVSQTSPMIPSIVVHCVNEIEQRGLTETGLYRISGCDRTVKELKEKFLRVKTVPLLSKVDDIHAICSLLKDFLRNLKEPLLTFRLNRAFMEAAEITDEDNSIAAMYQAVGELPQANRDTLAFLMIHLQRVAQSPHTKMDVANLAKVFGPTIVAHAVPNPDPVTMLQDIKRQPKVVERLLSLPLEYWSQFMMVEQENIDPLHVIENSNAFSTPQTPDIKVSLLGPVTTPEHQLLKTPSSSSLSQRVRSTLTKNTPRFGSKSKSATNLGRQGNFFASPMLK

Major prion protein = Major prion protein (Homo sapiens, UniProt P04156); type: functional, cell-based
cells [35] = experiment: cells
[36] = HepG2 cell cytotoxicity, dose response, cytotoxicity control, luminescence plate reader, powder samples, set 2 (AID 651860); type: functional, cell-based
[37] = HEK293T cell cytotoxicity, dose response, cytotoxicity control, luminescence plate reader, powder samples, set 4 (AID 651863); type: functional, cell-based; details: HEK293
HeLa = experiment: HeLa cell cytotoxicity, dose response, cytotoxicity control, ATP luminescence, cherry-pick samples (AID 687004); type: functional, cell-based; details: Homo sapiens

## Cc1cnc(NC(=O)c2ccc3c(c2)OCCO3)s1
[1]
  AC50: 9.33 µM (active)
[2]
  AC50: 5.12 µM (active)
[3]
  AC50: 52.3 µM (active)
[4]
  AC50: 0.794 µM (active)
[5]
  AC50: 28.8 µM (active)
[6]
  AC50: 13.1 µM (active)
[7]
  AC50: 26 µM (active)
[8]
  AC50: 0.854 µM (active)
[9]
  AC50: 17.5 µM (active)
[10]
  AC50: 29.4 µM (active)
[11]
  AC50: 36 µM (active)
[12]
  AC50: 26.8 µM (active)
Paired box protein Pax-8
  AC50: 3.49 µM (active)
[13]
  AC50: 13.4 µM (active)
[14]
  AC50: 18.4 µM (active)
[15]
  AC50: 20.7 µM (active)
[16]
  AC50: 31.4 µM (active)
[17]
  IC50: > 80 µM (inactive)
[18]
  AC50: 10.2 µM (active)

## COc1ccc(Nc2ccccc2N)cc1
Cells [19]
  IC50: 1.41 µM (active)
[20]
  IC50: 8.32 µM (active)
[21]
  CC50: 38.1 µM (active)
Nonstructural protein 1
  IC50: 42.8 µM (active)

## Cn1nnnc1Sc1ncnc2scc(-c3ccc(Br)cc3)c12
[2]
  AC50: 6.82 µM (active)
[22]
  EC50: 8.44 µM (active)
[23]
  AC50: 14.4 µM (active)
[4]
  AC50: 15.6 µM (active)
[24]
  AC50: 5.09 µM (active)
[8]
  AC50: 8.94 µM (active)
[25]
  AC50: 19.2 µM (active)
[11]
  AC50: 7.97 µM (active)
[26]
  AC50: 17.6 µM (active)
Paired box protein Pax-8
  AC50: 3.56 µM (active)
[27]
  AC50: 0.334 µM (active)
[28]
  AC50: 5.82 µM (active)
[16]
  AC50: 11.2 µM (active)

## Nc1c(-c2cccs2)cnc2c(-c3ccc(F)cc3)cnn12
[29]
  EC50: > 67.5 µM (inactive)

## N=c1c2ccccc2nnn1-c1ccc(C(F)(F)F)cc1
[30]
  IC50: 12.8 µM (active)
[31]
  IC50: 8.01 µM (active)
[32]
  IC50: 18.8 µM (active)

## CN(c1ccc(O)cc1)c1nc(-c2ccccc2)cs1
[33]
  CC50: 100 µM (active)
[34]
  IC50: 57.7 µM (active)

## CN(C)S(=O)(=O)c1ccc(N2CCCC2)c(C(=O)Nc2nc3ccccc3s2)c1
Major prion protein
  IC50: 10.4 µM (inactive)
Cells [35]
  IC50: > 138 µM (inactive)

## COc1ccc(CC/N=C2\C=C(NS(=O)(=O)c3c(C)cc(C)cc3C)c3ccccc3C2=O)cc1
[36]
  AC50: > 52 µM (inactive)
[37]
  AC50: > 52 µM (inactive)

## C[C@@H]1CN([C@@H](C)CO)C(=O)c2cc(NC(=O)Nc3cccc4ccccc34)ccc2O[C@@H]1CN(C)C(=O)Nc1ccccc1
HeLa
  AC50: 0.252 µM (active)
